The values below come from ChEMBL document CHEMBL1201862, “PubChem BioAssay data set” (2004).

SMILES strings stand for the structures.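 These data come from cells grown in 96-well plates and exposed to compound for 48 hours at five concentrations. At the GI50, growth is halved.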 Activity calls are given as the source filed them. Cut-off read from the data, not from the text of the source: active = GI50 up to about 1.1 µM and inactive = higher. Where only a bound is given, the exact number is not on record here.

Test systems include SF-295; NCI-H23; KM12; HOP-62; RXF 393; MDA-MB-435; HOP-92; A498; T47D; MDA-MB-231; HCT-116; MDA-N; BT-549; A549; SK-MEL-5; MCF7; CCRF-CEM; UACC-257; SNB-75; SN12C.
What all share (assay): DTP human tumour cell line panel, 48 h

By GI50 is commonly meant the concentration that inhibits growth by half. Regarding `CC(C)(C)C1=CC(=C(c2ccc(-c3c4nc(c(-c5ccc(C(=C6C=C(C(C)(C)C)C(=O)C(C(C)(C)C)=C6)c6cc(C(C)(C)C)c(O)c(C(C)(C)C)c6)cc5)c5ccc([nH]5)c(-c5ccc(C(=C6C=C(C(C)(C)C)C(=O)C(C(C)(C)C)=C6)c6cc(C(C)(C)C)c(O)c(C(C)(C)C)c6)cc5)c5nc(c(-c6ccc(C(=C7C=C(C(C)(C)C)C(=O)C(C(C)(C)C)=C7)c7cc(C(C)(C)C)c(O)c(C(C)(C)C)c7)cc6)c6ccc3[nH]6)C=C5)C=C4)cc2)c2cc(C(C)(C)C)c(O)c(C(C)(C)C)c2)C=C(C(C)(C)C)C1=O`, the GI50 in the assay with SF-295 was > 100 µM (inactive); in the assay on NCI-H23, > 100 µM (inactive); in the assay with KM12, > 100 µM (inactive); in the assay on HOP-62 it was > 100 µM (inactive); in the assay with RXF 393 it was > 70.8 µM (inactive); with MDA-MB-435 it was > 100 µM (inactive). Further, the GI50 with HOP-92, in the assay with A498, in the assay with T47D, in the assay with MDA-MB-231, in the assay with HCT-116 and with MDA-N was > 100 µM (inactive) in each case. The GI50 in the assay with BT-549, in the assay with A549, in the assay with SK-MEL-5, with MCF7, in the assay on CCRF-CEM and in the assay on UACC-257 was > 100 µM (inactive) throughout. Also, the GI50 with SNB-75 and in the assay with SN12C was > 100 µM (inactive) throughout.
As to `CCCC(=O)Nc1cc(/C=C/C(=O)N2C[C@H]3C[C@@]34C2=CC(=O)c2[nH]cc(C)c24)n(C)c1`, the GI50 in the assay with SF-295, in the assay on NCI-H23, in the assay with KM12, in the assay on HOP-62, with RXF 393 and with MDA-MB-435 was < 0.0025 µM (active) each time. Further, the 50% growth inhibitory concentration (GI50) with HOP-92, in the assay on A498, in the assay on T47D, in the assay with MDA-MB-231, in the assay on HCT-116 and with MDA-N was < 0.0025 µM (active) in each case. For the same compound, the GI50 with BT-549 was < 0.0025 µM (active); with A549 it was 0.00395 µM (active); in the assay on SK-MEL-5, < 0.0025 µM (active); in the assay with MCF7, < 0.0025 µM (active); in the assay with CCRF-CEM it was < 0.0025 µM (active); in the assay on UACC-257, < 0.0025 µM (active). For the same compound, the GI50 in the assay on SNB-75 and with SN12C was < 0.0025 µM (active) throughout.
Consider `COc1cc2c(cc1C)NC(=O)/C2=C/c1c(Cl)n(-c2ccccc2)c2ccccc12`, for which the GI50 in the assay on SF-295 is 11.3 µM (inactive); with NCI-H23, 16.4 µM (inactive); in the assay on KM12, 7.31 µM (inactive); with HOP-62 it was 19.4 µM (inactive); with RXF 393, 11.2 µM (inactive); in the assay with MDA-MB-435, 15.1 µM (inactive). Also, the GI50 is 23 µM (inactive) with HOP-92; 32.8 µM (inactive) in the assay on A498; 4.54 µM (inactive) in the assay on T47D; 8.69 µM (inactive) in the assay with MDA-MB-231; 13.4 µM (inactive) with HCT-116; 15.1 µM (inactive) in the assay on MDA-N. Besides, the GI50 is 17.3 µM (inactive) in the assay on BT-549; 7 µM (inactive) in the assay with A549; 10.5 µM (inactive) with SK-MEL-5; 10.2 µM (inactive) in the assay on MCF7; 4.42 µM (inactive) with CCRF-CEM; 20.5 µM (inactive) with UACC-257. In addition, the GI50 with SNB-75 is 65 µM (inactive); in the assay with SN12C, 11.2 µM (inactive).
`COc1cc2c(c(OC)c1OC)-c1ccc(SC)c(=O)cc1[C@@H](NC(=O)C(F)(F)F)CC2`: the GI50 in the assay with SF-295 was < 0.01 µM (active); in the assay with NCI-H23, < 0.01 µM (active); with KM12 it was < 0.01 µM (active); in the assay on HOP-62, < 0.0103 µM (active); in the assay with RXF 393, < 0.01 µM (active); in the assay on MDA-MB-435, < 0.01 µM (active). Besides, the GI50 was < 0.01 µM (active) in the assay on HOP-92; < 0.01 µM (active) in the assay on A498; > 60.8 µM (inactive) in the assay with T47D; < 0.01 µM (active) in the assay with MDA-MB-231; < 0.01 µM (active) in the assay on HCT-116; < 0.01 µM (active) in the assay on MDA-N. Moreover, the GI50 in the assay with BT-549 was 0.0118 µM (active); with A549 it was < 0.01 µM (active); in the assay with SK-MEL-5, < 0.01 µM (active); in the assay with MCF7 it was < 0.01 µM (active); in the assay with CCRF-CEM it was < 0.01 µM (active); in the assay with UACC-257, < 0.01 µM (active). Moreover, the figures for the GI50 with SNB-75 and in the assay on SN12C were 0.019 µM (active) and < 0.01 µM (active), respectively.
Regarding `O=C(NCCCCCCCN1CCCCCCC1)C(C1CCCCC1)C1CCCCC1`, the GI50 with SF-295 was 11.4 µM (inactive); in the assay on NCI-H23, 12.9 µM (inactive); in the assay on KM12 it was 6.75 µM (inactive); with HOP-62 it was 3.97 µM (inactive); in the assay on RXF 393, 5.61 µM (inactive); in the assay with MDA-MB-435, 7.67 µM (inactive). Besides, the GI50 with HOP-92 was 9.06 µM (inactive); in the assay with A498, 5.83 µM (inactive); in the assay on T47D, 6.05 µM (inactive); with MDA-MB-231 it was 8.51 µM (inactive); with HCT-116, 7.66 µM (inactive); in the assay with MDA-N it was 7.93 µM (inactive). The GI50 is 14.3 µM (inactive) in the assay on BT-549; 11.7 µM (inactive) in the assay with A549; 2.42 µM (inactive) in the assay on SK-MEL-5; 7.16 µM (inactive) in the assay on MCF7; 6.97 µM (inactive) with CCRF-CEM; 2.09 µM (inactive) in the assay on UACC-257. Besides, the GI50 was 9.79 µM (inactive) in the assay with SNB-75 and 13.1 µM (inactive) in the assay with SN12C.
With `CSc1ncc2c(C#N)c3sc4ccccc4n3c(=O)c2n1`, the GI50 was > 100 µM (inactive) with SF-295; > 100 µM (inactive) in the assay with NCI-H23; 54.2 µM (inactive) in the assay with KM12; 30.4 µM (inactive) with HOP-62; > 100 µM (inactive) with RXF 393; > 100 µM (inactive) in the assay on MDA-MB-435. Also, the GI50 in the assay on HOP-92 is > 100 µM (inactive); with A498 it was > 100 µM (inactive); with T47D, 91.8 µM (inactive); in the assay on MDA-MB-231 it was 41.1 µM (inactive); with HCT-116, > 100 µM (inactive); with MDA-N it was > 100 µM (inactive). The GI50 in the assay with BT-549 is > 100 µM (inactive); with A549 it was 78.3 µM (inactive); in the assay with SK-MEL-5 it was 64.6 µM (inactive); with MCF7 it was 16.8 µM (inactive); in the assay on CCRF-CEM, > 100 µM (inactive); with UACC-257, > 100 µM (inactive). Moreover, the values for the GI50 in the assay with SNB-75 and in the assay with SN12C were 43.5 µM (inactive) and > 100 µM (inactive), respectively.
On to `CCN(CC)CCN1c2ccccc2Sc2ccc3ccccc3c21`, for which the GI50 was 13.2 µM (inactive) in the assay with SF-295; 15.5 µM (inactive) in the assay on NCI-H23; 7 µM (inactive) in the assay on KM12; 14.9 µM (inactive) with HOP-62; 2.12 µM (inactive) in the assay on RXF 393; 8.63 µM (inactive) with MDA-MB-435. The GI50 in the assay with HOP-92 was 3.37 µM (inactive); in the assay with A498 it was 11.4 µM (inactive); with T47D, 2.01 µM (inactive); in the assay with MDA-MB-231 it was 6.03 µM (inactive); in the assay on HCT-116, 10.8 µM (inactive); with MDA-N, 12.3 µM (inactive). Moreover, the GI50 in the assay on BT-549 was 14.9 µM (inactive); in the assay with A549 it was 14.2 µM (inactive); in the assay with SK-MEL-5, 4.72 µM (inactive); in the assay on MCF7, 9.27 µM (inactive); in the assay with CCRF-CEM, 2.92 µM (inactive); in the assay with UACC-257, 7.69 µM (inactive). Further, the GI50 in the assay with SNB-75 was 7.06 µM (inactive); with SN12C, 11.7 µM (inactive).
As to `Clc1ccc(-c2cn3c(nc4ccccc43)c(-c3ccccc3)n2)cc1`, the GI50 was 13.3 µM (inactive) with SF-295; 24.5 µM (inactive) with NCI-H23; > 57.5 µM (inactive) in the assay with KM12; 11.5 µM (inactive) in the assay with HOP-62; 15.6 µM (inactive) with RXF 393; 25.2 µM (inactive) in the assay on MDA-MB-435. The GI50 was 18 µM (inactive) with HOP-92; 23.9 µM (inactive) in the assay on A498; 36.6 µM (inactive) in the assay with T47D; 42.6 µM (inactive) with MDA-MB-231; 29.9 µM (inactive) in the assay on HCT-116; 27.2 µM (inactive) in the assay on MDA-N. The GI50 was 19.5 µM (inactive) in the assay on BT-549; 17.4 µM (inactive) in the assay on A549; 17.7 µM (inactive) with SK-MEL-5; 28.1 µM (inactive) with MCF7; > 70.8 µM (inactive) in the assay with CCRF-CEM; 61.2 µM (inactive) in the assay on UACC-257. For the same compound, the results for the GI50 in the assay with SNB-75 and in the assay on SN12C were 9.51 µM (inactive) and 36.5 µM (inactive), respectively.
